Experimental data as given in US11713335B2, “Aminocoumarin compounds and methods of their use” (President and Fellows of Harvard College, priority 2018, dated 2023).
≈ marks a conversion by molar mass, not a printed value. Where two headings read alike, the source gives them in different places.

What was measured:
E. coli 25922 = test: Minimal inhibitory concentration, E. coli 25922; format: cell-based; settings: 16 hour minimal inhibitory concentration at 37° C., read-out: MIC (μM) E. coli 25922
Method in brief: (§1)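 Growth at 600 nm after 16 h at 37 °C without shaking defines the MIC, taken as the lowest compound concentration that prevents growth and expressed in µM. Cultures grown to saturation in LB, or TSA for S. aureus, were diluted 1:100 twice before twofold serial compound dilution.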

S. aureus RN4220 = test: Minimal inhibitory concentration, S. aureus RN4220; format: cell-based; settings: 16 hour minimal inhibitory concentration at 37° C., read-out: MIC (μM) S. aureus RN4220
Method in brief: as §1

E. cloacae 13047 = test: Minimal inhibitory concentration, E. cloacae 13047; format: cell-based; settings: 16 hour minimal inhibitory concentration at 37° C., read-out: MIC (μM) E. cloacae 13047
Method in brief: as §1

E. coli MC4100 = test: Minimal inhibitory concentration, E. coli MC4100; format: cell-based; settings: 16 hour minimal inhibitory concentration at 37° C., read-out: MIC (μM) E. coli MC4100 ara+
Method in brief: as §1

S. aureus MW2 = test: Minimal inhibitory concentration, S. aureus MW2; format: cell-based; settings: 16 hour minimal inhibitory concentration at 37° C., read-out: MIC (μM) S. aureus MW2 (MRSA)
Method in brief: as §1

A. baumannii 19606 = test: Minimal inhibitory concentration, A. baumannii 19606; format: cell-based; settings: 16 hour minimal inhibitory concentration at 37° C., read-out: MIC (μM) A. baumannii 19606
Method in brief: as §1

K. pneumoniae 700721 = test: Minimal inhibitory concentration, K. pneumoniae 700721; format: cell-based; settings: 16 hour minimal inhibitory concentration at 37° C., read-out: MIC (μM) K. pneumoniae 700721
Method in brief: as §1

WT E. coli = test: Minimal inhibitory concentration in wild-type E. coli; format: cell-based, Escherichia coli; settings: wild-type E. coli, 37° C., 16 hours, read-out: MIC (μM) in WT E. coli
Method in brief: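 Broth microdilution: saturated LB overnight culture diluted 1:100 twice, compound serially two-fold diluted across the plate from DMSO stock. Static incubation 16 hours at 37° C, OD600 read; MIC taken as lowest concentration inhibiting growth.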

[1] = Staphylococcus aureus, RN4220, 16 h
[2] = Staphylococcus aureus, MRSA, 16 h
[3] = Acinetobacter baumannii, 19606, 16 h

SMILES	MIC (E. coli 25922) [µM]	MIC (S. aureus RN4220) [µM]	MIC (E. cloacae 13047) [µM]	MIC (E. coli MC4100) [µM]	MIC (S. aureus MW2) [µM]	MIC (A. baumannii 19606) [µM]	MIC (K. pneumoniae 700721) [µM]	MIC (WT E. coli) [µM]	MIC (E. coli 25922; Escherichia coli, 25922, 16 h) [µM]	MIC (S. aureus RN4220; [1]) [µM]	MIC (E. cloacae 13047; Enterobacter cloacae, 13047) [µM]	MIC (E. coli MC4100; Escherichia coli, MC4100, 16 h) [µM]	MIC (S. aureus MW2; [2]) [µM]	MIC (A. baumannii 19606; [3]) [µM]	MIC (K. pneumoniae 700721; Klebsiella pneumoniae, 700721) [µM]	MIC (WT E. coli; Escherichia coli) [µM]
CO[C@@H]1[C@@H](OC(N)=O)[C@@H](O)[C@H](Oc2ccc3c(O)c(NC(=O)c4cccc(C5CCCCC5)c4)c(=O)oc3c2C)OC1(C)C [Compound 62]	82 (≈ 50.1 µg/mL)	5 (≈ 3.05 µg/mL)	>100	59 (≈ 36 µg/mL)	3 (≈ 1.83 µg/mL)	>50	82 (≈ 50.1 µg/mL)	59 (≈ 36 µg/mL)								
COC1C(OC(N)=O)C(O)C(Oc2ccc3c(O)c(NC(=O)C4CCCC(C5CCCCC5)C4)c(=O)oc3c2C)OC1(C)C (mixture of isomers) [Compound 63]	>200	10	>100	>200	5	>50	>100	300								
COc1ccc(C(=O)Nc2c(O)c3ccc(O[C@@H]4OC(C)(C)[C@H](OC)[C@@H](OC(N)=O)[C@H]4O)c(C)c3oc2=O)cc1 [Compound 7]									> 200	45 (≈ 25.1 µg/mL)	> 100	> 200	45 (≈ 25.1 µg/mL)	> 50	> 100	> 300
CO[C@@H]1[C@@H](OC(N)=O)[C@@H](O)[C@H](Oc2ccc3c(O)c(NC(=O)c4cccc(-c5ccccc5[N+](=O)[O-])c4)c(=O)oc3c2C)OC1(C)C [Compound 64]	>200	77 (≈ 50 µg/mL)	>100	>200	39 (≈ 25.3 µg/mL)	>50	>100	>300								
CO[C@@H]1[C@@H](OC(N)=O)[C@@H](O)[C@H](Oc2ccc3c(O)c(NC(=O)c4cc5ccccc5[nH]4)c(=O)oc3c2C)OC1(C)C [Compound 16]	>200	>100	>100	>200	>100	>50	>100	>300								
CO[C@@H]1[C@@H](OC(N)=O)[C@@H](O)[C@H](Oc2ccc3c(O)c(NC(=O)c4ccc(Oc5ccccc5)cc4)c(=O)oc3c2C)OC1(C)C [Compound 44]	>200	45 (≈ 27.9 µg/mL)	>100	>200	40 (≈ 24.8 µg/mL)	>50	>100	>300								
CO[C@@H]1[C@@H](OC(N)=O)[C@@H](O)[C@H](Oc2ccc3c(O)c(NC(=O)c4ccc(C#Cc5ccccc5)cc4)c(=O)oc3c2C)OC1(C)C [Compound 76]	80 (≈ 50.3 µg/mL)	5 (≈ 3.14 µg/mL)	>100	40 (≈ 25.1 µg/mL)	3 (≈ 1.89 µg/mL)	40 (≈ 25.1 µg/mL)	>100	40 (≈ 25.1 µg/mL)								
CO[C@@H]1[C@@H](OC(N)=O)[C@@H](O)[C@H](Oc2ccc3c(O)c(NC(=O)C45CC6CC(CC(C6)C4)C5)c(=O)oc3c2C)OC1(C)C [Compound 14]									> 200	43 (≈ 25.2 µg/mL)	> 100	> 200	21 (≈ 12.3 µg/mL)	> 50	> 100	> 300
CO[C@@H]1[C@@H](OC(N)=O)[C@@H](O)[C@H](Oc2ccc3c(O)c(NC(=O)c4cccc(-c5ccccc5)c4)c(=O)oc3c2C)OC1(C)C [Compound 1]									41 (≈ 24.8 µg/mL)	5 (≈ 3.02 µg/mL)	> 100	26 (≈ 15.7 µg/mL)	5 (≈ 3.02 µg/mL)	> 50	> 100	26 (≈ 15.7 µg/mL)
COc1cccc(OC)c1C(=O)Nc1c(O)c2ccc(O[C@@H]3OC(C)(C)[C@H](OC)[C@@H](OC(N)=O)[C@H]3O)c(C)c2oc1=O [Compound 10]									> 200	> 100	> 100	> 200	85 (≈ 50 µg/mL)	> 50	> 100	> 300
CCc1ccc(-c2cccc(C(=O)Nc3c(O)c4ccc(O[C@@H]5OC(C)(C)[C@H](OC)[C@@H](OC(N)=O)[C@H]5O)c(C)c4oc3=O)c2)cc1 [Compound 54]	79 (≈ 50 µg/mL)	0.99 (≈ 0.626 µg/mL)	>100	40 (≈ 25.3 µg/mL)	0.99 (≈ 0.626 µg/mL)	20 (≈ 12.7 µg/mL)	79 (≈ 50 µg/mL)	40 (≈ 25.3 µg/mL)								
CO[C@@H]1[C@@H](OC(N)=O)[C@@H](O)[C@H](Oc2ccc3c(O)c(NC(=O)c4cccc(-c5ccccn5)c4)c(=O)oc3c2C)OC1(C)C [Compound 31]									> 200	41 (≈ 24.8 µg/mL)	> 100	> 200	41 (≈ 24.8 µg/mL)	> 50	> 100	> 300
CO[C@@H]1[C@@H](OC(N)=O)[C@@H](O)[C@H](Oc2ccc3c(O)c(NC(=O)c4cccc(-c5ccncc5)c4)c(=O)oc3c2C)OC1(C)C [Compound 32]									> 200	83 (≈ 50.3 µg/mL)	> 100	> 200	41 (≈ 24.8 µg/mL)	> 50	> 100	> 300
CO[C@@H]1[C@@H](OC(N)=O)[C@@H](O)[C@H](Oc2ccc3c(O)c(NC(=O)c4ccc(O)c(-c5ccc(F)cc5)c4)c(=O)oc3c2C)OC1(C)C [Compound 79]	20 (≈ 12.8 µg/mL)	2 (≈ 1.28 µg/mL)	>100	26 (≈ 16.6 µg/mL)	0.98 (≈ 0.626 µg/mL)	20 (≈ 12.8 µg/mL)	78 (≈ 49.8 µg/mL)	26 (≈ 16.6 µg/mL)								
CO[C@@H]1[C@@H](OC(N)=O)[C@@H](O)[C@H](Oc2ccc3c(O)c(NC(=O)c4cccc(-c5cccc(C(C)C)c5)c4)c(=O)oc3c2C)OC1(C)C [Compound 61]	77 (≈ 49.8 µg/mL)	0.39 (≈ 0.252 µg/mL)	>100	59 (≈ 38.2 µg/mL)	0.19 (≈ 0.123 µg/mL)	10 (≈ 6.47 µg/mL)	>100	59 (≈ 38.2 µg/mL)								
CO[C@@H]1[C@@H](OC(N)=O)[C@@H](O)[C@H](Oc2ccc3c(O)c(NC(=O)c4cc(-c5ccccc5)cc(-c5ccccc5)c4)c(=O)oc3c2C)OC1(C)C [Compound 75]	>200	18 (≈ 12.3 µg/mL)	>100	>200	9 (≈ 6.13 µg/mL)	>50	>100	>300								
